Results as given in patent US20230053540A1, “TREATMENT OF LIVER INJURY” (Massachusetts Institute of Technology, priority 2019, published 2023).

Test system: hepatocytes
Test: Seq-Well scRNA-Seq of hepatocytes after APAP overdose (signature scores, DEG vs untreated)
Format: in vivo, mouse
[1] = A48 (48 h post-APAP) vs other clusters, Wilcox
[2] = A48 (APAP 48 h) vs untreated (UT) hepatocytes

SMILES: CC(=O)Nc1ccc(O)cc1 [APAP, acetaminophen]
- avg_logFC Ssr3 (A24 vs untreated (UT)): 0.5218
- avg_logFC Stard4 (A24 vs untreated (UT)): 0.3515
- avg_logFC Steap4 (A24 vs untreated (UT)): 0.476
- avg_logFC Tmed7 (A24 vs untreated (UT)): 0.3868
- avg_logFC Tmem30a (A24 vs untreated (UT)): 0.3328
- avg_logFC Tmem205 (A24 vs untreated (UT)): −0.4721
- avg_logFC Tram1 (A24 vs untreated (UT)): 0.4111
- avg_logFC Trp53inp1 (A24 vs untreated (UT)): 0.368
- avg_logFC Ubc (A24 vs untreated (UT)): −0.3705
- avg_logFC Ugt2a3 (A24 vs untreated (UT)): −0.3334
- avg_logFC Ugt2b1 (A24 vs untreated (UT)): −0.2895
- avg_logFC Ugt2b5 (A24 vs untreated (UT)): −0.5765
- avg_logFC Ugt2b36 (A24 vs untreated (UT)): −0.3293
- avg_logFC Uqcrq (A24 vs untreated (UT)): −0.5959
- avg_logFC Uso1 (A24 vs untreated (UT)): 0.3881
- avg_logFC Usp4 (A24 vs untreated (UT)): 0.3247
- avg_logFC Usp9x (A24 vs untreated (UT)): 0.4076
- avg_logFC Zfp683 (A24 vs untreated (UT)): −0.4214
- avg_logFC mmu-mir-6236 (A24 vs untreated (UT)): 0.7875
- avg_logFC mt-Atp6 (A24 vs untreated (UT)): −0.5737
- avg_logFC mt-Co1 (A24 vs untreated (UT)): −1.433
- avg_logFC mt-Co2 (A24 vs untreated (UT)): −1.397
- avg_logFC mt-Co3 (A24 vs untreated (UT)): −1.167
- avg_logFC mt-Cytb (A24 vs untreated (UT)): −1.571
- avg_logFC mt-Nd1 (A24 vs untreated (UT)): −1.42
- avg_logFC mt-Nd2 (A24 vs untreated (UT)): −1.242
- avg_logFC mt-Nd4 (A24 vs untreated (UT)): −1.957
- avg_logFC mt-Nd5 (A24 vs untreated (UT)): −1.384
- avg_logFC mt-Nd6 (A24 vs untreated (UT)): −0.4779
- avg_logFC mt-Rnr1 (A24 vs untreated (UT)): −0.4562
- avg_logFC mt-Rnr2 (A24 vs untreated (UT)): −0.7783
- avg_logFC mt-Tm (A24 vs untreated (UT)): 0.2847
- avg_logFC mt-Tq (A24 vs untreated (UT)): 0.2879
- avg_logFC n-R5-8s1 (A24 vs untreated (UT)): 1.253
- avg_logFC Abcb4 [1]: 0.4425
- avg_logFC Abcd2 [1]: 0.2813
- avg_logFC Abhd14b [1]: 0.4059
- avg_logFC Acad11 [1]: 0.3851
- avg_logFC Agt [1]: 0.5795
- avg_logFC Ahcy [1]: 0.34
- avg_logFC Ahsg [1]: 0.3592
- avg_logFC Aldh9a1 [1]: 0.3826
- avg_logFC Aldob [1]: 0.4375
- avg_logFC Ambp [1]: 0.286
- avg_logFC Amy1 [1]: 0.4216
- avg_logFC Angptl3 [1]: 0.6111
- avg_logFC Apoa5 [1]: 0.4484
- avg_logFC Apoc2 [1]: 0.8639
- avg_logFC Apoc3 [1]: 0.407
- avg_logFC Apoe [1]: 0.5049
- avg_logFC Apoh [1]: 0.4628
- avg_logFC Atp5b [1]: 0.3281
- avg_logFC Atp5h [1]: 0.5978
- avg_logFC Bfar [1]: 0.308
- avg_logFC Bnip3 [1]: 0.462
- avg_logFC Cdo1 [1]: 0.3971
- avg_logFC Cebpb [1]: 0.3684
- avg_logFC Ces1b [1]: 0.4829
- avg_logFC Ces1c [1]: 0.5488
- avg_logFC Chchd10 [1]: 0.7517
- avg_logFC Cox5a [1]: 0.4197
- avg_logFC Cox8a [1]: 0.552
- avg_logFC Cp [1]: 0.4274
- avg_logFC Cyp4a10 [1]: 0.9326
- avg_logFC Cyp4a14 [1]: 1.281
- avg_logFC Dbp [1]: 0.2896
- avg_logFC Ddb1 [1]: 0.3544
- avg_logFC Decr1 [1]: 0.5669
- avg_logFC Decr2 [1]: 0.4129
- avg_logFC Ech1 [1]: 0.418
- avg_logFC Echs1 [1]: 0.4649
- avg_logFC Ephx2 [1]: 0.3869
- avg_logFC F2 [1]: 0.3952
- avg_logFC F10 [1]: 0.3927
- avg_logFC F12 [1]: 0.388
- avg_logFC Fah [1]: 0.3913
- avg_logFC Fcgrt [1]: 0.4084
- avg_logFC Fkbp5 [1]: 0.2572
- avg_logFC Fth1 [1]: 0.375
- avg_logFC Gabarap [1]: 0.4014
- avg_logFC Gc [1]: 0.2979
- avg_logFC Gltscr2 [1]: 0.3432
- avg_logFC Gm6484 [1]: 0.4108
- avg_logFC Gm23935 [1]: 0.4738
- avg_logFC Grn [1]: 0.431
- avg_logFC Gstt3 [1]: 0.3384
- avg_logFC Gys2 [1]: 0.4231
- avg_logFC Hdac11 [1]: 0.3557
- avg_logFC Herpud1 [1]: 0.6044
- avg_logFC Hmgcl [1]: 0.5501
- avg_logFC Hmgcs2 [1]: 0.7687
- avg_logFC Hpx [1]: 0.3851
- avg_logFC Hrg [1]: 0.5316
- avg_logFC Hsd17b13 [1]: 0.6221
- avg_logFC Hspa8 [1]: 0.4107
- avg_logFC Khk [1]: 0.5202
- avg_logFC Lcat [1]: 0.5053
- avg_logFC Lims2 [1]: 0.3761
- avg_logFC Lpin1 [1]: 0.515
- avg_logFC Mat1a [1]: 0.7753
- avg_logFC Mfsd2a [1]: 0.6614
- avg_logFC Mlycd [1]: 0.4378
- avg_logFC Ndrg2 [1]: 0.3482
- avg_logFC Nr1i3 [1]: 0.4759
- avg_logFC Oaf [1]: 0.5021
- avg_logFC P4hb [1]: 0.2981
- avg_logFC Pabpc1 [1]: 0.4782
- avg_logFC Plin5 [1]: 0.3985
- avg_logFC Pnpla2 [1]: 0.3465
- avg_logFC Prodh2 [1]: 0.5055
- avg_logFC Rbp4 [1]: 0.3942
- avg_logFC Rdh7 [1]: 0.4684
- avg_logFC Reep6 [1]: 0.6233
- avg_logFC Retsat [1]: 0.7096
- avg_logFC Rgs16 [1]: 0.4545
- avg_logFC Rpl38 [1]: 0.3322
- avg_logFC Scand1 [1]: 0.2707
- avg_logFC Serpina3m [1]: 0.4034
- avg_logFC Serpina1d [1]: 0.3053
- avg_logFC Serping1 [1]: 0.5777
- avg_logFC Slc25a10 [1]: 0.4313
- avg_logFC Slc25a20 [1]: 0.3875
- avg_logFC Slc25a47 [1]: 0.6175
- avg_logFC Slc27a5 [1]: 0.4062
- avg_logFC Slc37a4 [1]: 0.4461
- avg_logFC Slco1a4 [1]: 0.5091
- avg_logFC Snord118 [1]: 0.4771
- avg_logFC St3gal5 [1]: 0.5549
- avg_logFC Sult1a1 [1]: 0.4827
- avg_logFC Syvn1 [1]: 0.3041
- avg_logFC Tcea3 [1]: 0.3938
- avg_logFC Tef [1]: 0.3394
- avg_logFC Tmbim4 [1]: 0.3693
- avg_logFC Tmbim6 [1]: 0.3713
- avg_logFC Ttc36 [1]: 0.5638
- avg_logFC Ttpa [1]: 0.4431
- avg_logFC Ttr [1]: 0.4225
- avg_logFC Ugt2b5 [1]: 0.4388
- avg_logFC Vnn3 [1]: 0.3008
- avg_logFC Vtn [1]: 0.5228
- avg_logFC Yipf3 [1]: 0.2785
- Gstm3 pct.1 (A48 (APAP 48 h) hepatocytes): 0.279
- Pim3 pct.1 (A48 (APAP 48 h) hepatocytes): 0.845
- Gstm3 avg_logFC [2]: −0.6277
- Pim3 avg_logFC [2]: 0.2884
- avg_logFC Acsl1 (A48A96 vs untreated (UT)): 0.2563
- avg_logFC Aldh3a2 (A48A96 vs untreated (UT)): 0.3079
- avg_logFC Atp1a1 (A48A96 vs untreated (UT)): 0.2628
- avg_logFC Atp5d (A48A96 vs untreated (UT)): 0.2501
- avg_logFC C6 (A48A96 vs untreated (UT)): −0.267
- avg_logFC Ces1e (A48A96 vs untreated (UT)): 0.2656
- avg_logFC Ctsd (A48A96 vs untreated (UT)): 0.2579
- avg_logFC Cyp4a12a (A48A96 vs untreated (UT)): −0.2771
- avg_logFC Ech1 (A48A96 vs untreated (UT)): 0.2505
- avg_logFC F5 (A48A96 vs untreated (UT)): 0.3006
- avg_logFC F9 (A48A96 vs untreated (UT)): 0.2568
- avg_logFC F12 (A48A96 vs untreated (UT)): 0.2567
- avg_logFC Fcgrt (A48A96 vs untreated (UT)): 0.2585
- avg_logFC Fn1 (A48A96 vs untreated (UT)): 0.2925
- avg_logFC Ftl1 (A48A96 vs untreated (UT)): −0.2988
- avg_logFC Gabarapl1 (A48A96 vs untreated (UT)): 0.2607
- avg_logFC Gclm (A48A96 vs untreated (UT)): 0.2588
- avg_logFC Glul (A48A96 vs untreated (UT)): 0.3795
- avg_logFC Gm4076 (A48A96 vs untreated (UT)): −0.3083
- avg_logFC Gm20594 (A48A96 vs untreated (UT)): −0.3566
- avg_logFC Gsta2 (A48A96 vs untreated (UT)): 0.2522
- avg_logFC Hadha (A48A96 vs untreated (UT)): 0.2509
- avg_logFC Hal (A48A96 vs untreated (UT)): 0.2801
- avg_logFC Hgfac (A48A96 vs untreated (UT)): 0.2522
- avg_logFC Hsd17b4 (A48A96 vs untreated (UT)): 0.2532
- avg_logFC Ifitm3 (A48A96 vs untreated (UT)): −0.2543
- avg_logFC Inmt (A48A96 vs untreated (UT)): −0.2532
- avg_logFC Lpgat1 (A48A96 vs untreated (UT)): 0.2576
- avg_logFC Lpin1 (A48A96 vs untreated (UT)): 0.2775
- avg_logFC Ndufb2 (A48A96 vs untreated (UT)): 0.2516
- avg_logFC Park7 (A48A96 vs untreated (UT)): 0.2515
- avg_logFC Pck1 (A48A96 vs untreated (UT)): 0.2719
- avg_logFC Pipox (A48A96 vs untreated (UT)): 0.2725
- avg_logFC Ppp2r5a (A48A96 vs untreated (UT)): 0.2509
- avg_logFC Ptms (A48A96 vs untreated (UT)): 0.2678
- avg_logFC Rarres1 (A48A96 vs untreated (UT)): −0.2919
- avg_logFC Rpl32 (A48A96 vs untreated (UT)): −0.2847
- avg_logFC Rpl41 (A48A96 vs untreated (UT)): −0.295
- avg_logFC Sardh (A48A96 vs untreated (UT)): 0.2692
- avg_logFC Sdhd (A48A96 vs untreated (UT)): 0.3208
- avg_logFC Sds (A48A96 vs untreated (UT)): 0.2973
- avg_logFC Sec61a1 (A48A96 vs untreated (UT)): 0.2637
- avg_logFC Serpina12 (A48A96 vs untreated (UT)): −0.3247
- avg_logFC Sfxn1 (A48A96 vs untreated (UT)): 0.3049
- avg_logFC Slc2a2 (A48A96 vs untreated (UT)): 0.2723
- avg_logFC Slc37a4 (A48A96 vs untreated (UT)): 0.2683
- avg_logFC Tmem106b (A48A96 vs untreated (UT)): 0.2704
- avg_logFC Ubb (A48A96 vs untreated (UT)): −0.2644
- avg_logFC Ubxn4 (A48A96 vs untreated (UT)): 0.2503
- avg_logFC Upb1 (A48A96 vs untreated (UT)): 0.2504
- avg_logFC Usmg5 (A48A96 vs untreated (UT)): 0.2787
- avg_logFC mmu-mir-6236 (A48A96 vs untreated (UT)): −0.4297
- avg_logFC mt-Atp6 (A48A96 vs untreated (UT)): −0.3234
- C6 A48logFC (A48 vs UT): −0.267
- Glul A48logFC (A48 vs UT): 0.3795
- Gm20594 A48logFC (A48 vs UT): −0.3566
- Rps8 A48logFC (A48 vs UT): −0.2746
